Results as given in PubChem BioAssay AID1963963 (Molecular Pharmacology Branch, DTP, NCI, 2024).

System: 958667-338-R-J2-PDC tumor spheroids viability
Test: Anticancer human tumor 958667-338-R-J2-PDC patient-derived colon adenocarcinoma cell line growth inhibition [PI3K]
Settings: spheroids with HUVEC and MSC; for IC50: curve of first compound; for viability, T/C: stronger effect = lower value; active = viability on the fitted dose curve at most 10% of control; inactive = the rest
Source text: Combinatorial screen of targeted agents with the PI3K inhibitors inavolisib, alpelisib, duvelisib, and copanlisib in multi-cell type tumor spheroids
A high-throughput screen of multi-cell type tumor spheroids was designed to identify active combinations of targeted small molecules and PI3K pathway inhibitors. Complex spheroids include a stromal component modeled by human endothelial cells (HUVEC) and fibroblasts modeled by human mesenchymal stem cells (MSCs). The concentration ranges selected for each drug and investigational agent were based upon clinically achievable concentrations if the clinical Cmax of the agent was known.
Compounds. The drugs and investigational agents: inavolisib (NSC800729), alpelisib (NSC765974), duvelisib (NSC772469), copanlisib (NSC816437), ipatasertib (NSC767898), afuresertib (NSC778305), talazoparib (NSC767125), sapanisertib (NSC764658), selumetinib (NSC741078), tovorafenib (DAY101, NSC766906), vemurafenib (NSC761431), ravoxertinib (NSC781343), sotorasib (NSC818433), MRTX1133 (NSC 836407), abemaciclib (NSC 768073), palbociclib (NSC758247), venetoclax (NSC 766270), SY5609 (NSC837396), enzalutamide (NSC755605), and darolutamide (NSC825331), were obtained from the National Cancer Institute (NCI) Developmental Therapeutics Program Chemical Repository. The FDA-approved anticancer drug set is available from the NCI Developmental Therapeutics Program. […] The stock solutions were prepared in dimethyl sulfoxide (DMSO, Sigma-Aldrich, St. Louis, MO, cat. D2650) at 800-fold the tested concentration and stored at -70 degrees C prior to their use. All drugs and investigational agents were tested over a range starting from a high concentration at or near the clinical Cmax and decreasing in half-log increments. If the clinical Cmax for an agent had not been determined, the highest concentration tested was 10 microM.
Cell Culture. All cells were maintained in an incubator at 37 degrees C and 5% CO2 with 95% humidity. The PDC lines were cultured according to standard operating procedures established by the NCI PDMR (https://pdmr.cancer.gov/sops/default.htm). All PDCs were thawed and cultured in Matrigel-coated flasks prepared with a working solution of 1X Ham's F-12 nutrient mix, without supplementation (Invitrogen, Waltham, MA, cat. 11765054), 100 U/mL penicillin-streptomycin (Invitrogen, cat. 15140122), and 2.5% Matrigel (Corning Inc., Corning, NY, cat. 354248) for the first three passages. The 354836-022-R-J1-PDC, 475296-252-R-J1-PDC, and 997726-040-R-J2-PDC lines were cultured in 6A media, which includes advanced DMEM/F-12 (Thermo Fisher Scientific, cat. 12634028), 10 mM HEPES (Thermo Fisher Scientific, cat. 15630080), 1X GlutaMAX supplement (Thermo Fisher Scientific, cat. 35050061), 0.1 mg/mL primocin (InvivoGen, San Diego, CA, cat. ant-pm-2), 10% defined fetal bovine serum, heat inactivated (HyClone Laboratories Inc., Logan, UT, cat. SH30070.03HI), 50% L-WRN conditioned media (ATCC, cat. CRL-3276), 1.25 mM N-Acetyl-L-cysteine (Sigma-Aldrich, cat. A9165), 10 mM nicotinamide (Sigma-Aldrich, cat. N0636), 1X B-27 supplement (Thermo Fisher Scientific, cat. 17504044), 1X N-2 supplement (Thermo Fisher Scientific, cat. 17502048), and 10 microM Y-27632 dihydrochloride (Tocris Bioscience, Bristol, United Kingdom, cat. 1254). The 624824-186-R-J2-PDC line was cultured in 6C/Colon 1B media, which includes all 6A media components plus 50 ng/mL human EGF recombinant protein (Thermo Fisher Scientific, cat. PHG0311). […]

[1] = second compound 0.0316 µM, first compound 0.0316 µM
[2] = second compound 0.0316 µM, first compound 0.1 µM
[3] = second compound 0.0316 µM, first compound 0.316 µM
[4] = second compound 0.0316 µM, first compound 1 µM
[5] = second compound 0.0316 µM, first compound 3.16 µM
[6] = second compound 0.0316 µM, first compound 10 µM
[7] = second compound 0.1 µM, first compound 0.0316 µM
[8] = second compound 0.1 µM, first compound 0.1 µM
[9] = second compound 0.1 µM, first compound 0.316 µM
[10] = second compound 0.1 µM, first compound 1 µM
[11] = second compound 0.1 µM, first compound 3.16 µM
[12] = second compound 0.1 µM, first compound 10 µM
[13] = second compound 0.316 µM, first compound 0.0316 µM
[14] = second compound 0.316 µM, first compound 0.1 µM
[15] = second compound 0.316 µM, first compound 0.316 µM
[16] = second compound 0.316 µM, first compound 1 µM
[17] = second compound 0.316 µM, first compound 3.16 µM
[18] = second compound 0.316 µM, first compound 10 µM
[19] = second compound 1 µM, first compound 0.0316 µM
[20] = second compound 1 µM, first compound 0.1 µM
[21] = second compound 1 µM, first compound 0.316 µM
[22] = second compound 1 µM, first compound 1 µM
[23] = second compound 1 µM, first compound 3.16 µM
[24] = second compound 1 µM, first compound 10 µM
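Note: spheroids exposed to compounds for seven days before readout.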

CC1(C)CCC(Nc2ncc(C(F)(F)F)c(-c3c[nH]c4c(P(C)(C)=O)c(C#N)ccc34)n2)CN1 (centres undefined) + CC(Nc1ncnc2nc[nH]c12)c1cc2cccc(Cl)c2c(=O)n1-c1ccccc1
3.12 µM: IC50 (second compound 1 µM)
3.03 µM: IC50 (second compound 3.16 µM)
4.48 µM: IC50 (second compound 0.0316 µM)
inactive: viability, T/C [1] 101% | viability, T/C [2] 94.6% | viability, T/C [3] 82.8% | viability, T/C [4] 69% | viability, T/C [5] 70.1% | viability, T/C [6] 25.9% | viability, T/C [7] 113% | viability, T/C [8] 72.1% | viability, T/C [9] 72% | viability, T/C [10] 62.5% | viability, T/C [11] 64.9% | viability, T/C [12] 20% | viability, T/C [13] 98% | viability, T/C [14] 106% | viability, T/C [15] 80.4% | viability, T/C [16] 74% | viability, T/C [17] 63.9% | viability, T/C [18] 24.6% | viability, T/C [19] 82.4% | viability, T/C [20] 103% | viability, T/C [21] 90.6% | viability, T/C [22] 65.4% | viability, T/C [23] 54.5% | viability, T/C [24] 30.8% | viability, T/C (second compound 3.16 µM, first compound 0.0316 µM) 117% | viability, T/C (second compound 3.16 µM, first compound 0.1 µM) 96.1% | viability, T/C (second compound 3.16 µM, first compound 0.316 µM) 86% | viability, T/C (second compound 3.16 µM, first compound 1 µM) 64.1% | viability, T/C (second compound 3.16 µM, first compound 3.16 µM) 60.8% | viability, T/C (second compound 3.16 µM, first compound 10 µM) 21.8% | viability, T/C (second compound 10 µM, first compound 0.0316 µM) 84.6% | viability, T/C (second compound 10 µM, first compound 0.1 µM) 69.1% | viability, T/C (second compound 10 µM, first compound 0.316 µM) 84.2% | viability, T/C (second compound 10 µM, first compound 1 µM) 66.3% | viability, T/C (second compound 10 µM, first compound 3.16 µM) 49.6% | viability, T/C (second compound 10 µM, first compound 10 µM) 14.2%
2.34 µM: IC50 (second compound 0.1 µM)
3 µM: IC50 (second compound 10 µM)
4.17 µM: IC50 (second compound 0.316 µM)

Cn1ncc(Cl)c1-c1cc(C(=O)NC(CN)Cc2cccc(F)c2)sc1Cl (centres undefined) + CC(Nc1ccc2c(c1)OCCn1cc(N3C(=O)OCC3C(F)F)nc1-2)C(N)=O
1.95 µM: IC50 (second compound 0.1 µM)
2.71 µM: IC50 (second compound 0.0316 µM)
inactive: viability, T/C (second compound 0.00316 µM, first compound 0.0316 µM) 98.9% | viability, T/C (second compound 0.00316 µM, first compound 0.1 µM) 94.4% | viability, T/C (second compound 0.00316 µM, first compound 0.316 µM) 96.2% | viability, T/C (second compound 0.00316 µM, first compound 1 µM) 76.3% | viability, T/C (second compound 0.00316 µM, first compound 3.16 µM) 49.4% | viability, T/C (second compound 0.00316 µM, first compound 10 µM) 41.6% | viability, T/C (second compound 0.01 µM, first compound 0.0316 µM) 109% | viability, T/C (second compound 0.01 µM, first compound 0.1 µM) 104% | viability, T/C (second compound 0.01 µM, first compound 0.316 µM) 104% | viability, T/C (second compound 0.01 µM, first compound 1 µM) 75% | viability, T/C (second compound 0.01 µM, first compound 3.16 µM) 41.8% | viability, T/C (second compound 0.01 µM, first compound 10 µM) 27.7% | viability, T/C [1] 106% | viability, T/C [2] 91.2% | viability, T/C [3] 94.2% | viability, T/C [4] 85.8% | viability, T/C [5] 44.3% | viability, T/C [6] 29.5% | viability, T/C [7] 95.8% | viability, T/C [8] 89% | viability, T/C [9] 79.4% | viability, T/C [10] 65.7% | viability, T/C [11] 38.4% | viability, T/C [12] 25.6% | viability, T/C [13] 54.1% | viability, T/C [14] 79.6% | viability, T/C [15] 63% | viability, T/C [16] 48.5% | viability, T/C [17] 31.8% | viability, T/C [18] 24.9% | viability, T/C [19] 46.1% | viability, T/C [20] 54.1% | viability, T/C [21] 45.1% | viability, T/C [22] 46% | viability, T/C [23] 31.2% | viability, T/C [24] 20.8%
2.35 µM: IC50 (second compound 0.01 µM)
3.02 µM: IC50 (second compound 0.00316 µM)
0.944 µM: IC50 (second compound 0.316 µM)
< 0.0316 µM: IC50 (second compound 1 µM)
